Data taken from patent publication US9977009B2, “Planar patch clamp device and planar patch clamp system” (Japan Science and Technology Agency, priority 2013, dated 2018).

What was measured:
[1] = system: nerve cells obtained by dissecting the cerebral cortex of a rat (neuron network); assay: Channel current measurement of a neuron network with the composite multi-channel type planar patch clamp device (whole-cell mode); format: cell-based; conditions: applied membrane potential −20 mV; for increase of large area pulse channel current in the state of glutamic acid toxicity: CNQX (200 μM) and D-AP5 (200 μM) added together after 20 μM glutamic acid, about 60 minutes, FIG. 12(c)
From the text: The composite multi-channel type planar patch clamp device (1b) of the present invention was used to conduct experiments showing that high throughput screening of drugs acting on a neural network is possible. At the cell fixing locations (24) of the Si substrate surface (2S) having approximately 2 micron size through holes (3) of the composite multi-channel type planar patch clamp device (1b) shown in FIG. 5, nerve cells (5) obtained by dissecting the cerebral cortex of a rat on day 17 of birth were seeded. The commercially available nerve cell medium (Sumitomo Bakelite) was added and the result cultured in a dish for 11 days to form a neuron network which was then observed by an optical microscope (FIG. 10). Next, the Si substrate (2) on which the nerve cells (5) were placed was set on the composite multi-channel type planar patch clamp device (1b) and the reservoir sections (22) of the first reservoir (6) were filled with the bath solution (145 mM NaCl+3 mM KCl+10 mM HEPES+2 mM CaCl2+8 mM Glucose+1 mM MgCl2.6H2O, pH7.3). […] A flat baseline was recorded without regard to the applied membrane potential. […] After measurement for about 60 minutes, to one reservoir section (22) of the first reservoir, a bath solution comprising the AMPA receptor antagonist 6-cyano-7-nitroquinoxaline-2,3-dione (CNQX)(200 μM) and NMDA receptor antagonist D-(−)-2-amino-5-phosphonopentanoic acid (D-AP5) (200 μM) dissolved in it was introduced and the channel current was again measured (FIG. 11C). […] To show these states clearer, the channel current of the applied membrane potential −20 mV was focused on and the area of each pulse-like wavelength observed was calculated. […] By filling the other reservoir sections (22) with other candidate drugs, making the valves (10) of the branch supply path (8b) and branch discharge path (9b) corresponding to the measured section the opened state, making the other valves (10) the closed state, and similarly measuring the channel current, it is possible to measure the effect of a candidate drug on the neuron network. […]

[2] = system: Cerebral cortex cells of a rat (neuron network); assay: Ca^2+ imaging of a neuron network; format: cell-based; conditions: buffer solution (500 μl) containing 10 μM glutamic acid added; FIG. 13(b)
Procedure: Inside the 35 mm dish (a), the substrate of FIG. 6 (finished being coated by PLL) was placed. Cerebral cortex cells of a rat on day 17 of birth isolated by the enzyme trypsin were suspended by a commercially available nerve cell medium (Sumitomo Bakelite) to give 2.5×10^5 cells/ml. This cell suspension: 2 ml (=5.0×10^5 cells) was added to the dish (a). In the presence of 5% CO2, this was cultured at 37° C. for 17 days. After formation of the neuron network, this substrate was transferred to another dish (b). To this dish (b), a nerve cell medium (2 ml) was added. To this medium, BAPTA-1 (1 μl) and Cremophor (10 μl) were added and cultured at 37° C. for 1 hour. The culture supernatant was discarded and a buffer solution (145 mM NaCl+10 mM HEPES+8 mM Glucose+3 mM KCl+2 mM CaCl2+1 mM MgCl2, pH7.3): 2 ml was added. This was stored at room temperature away from the light until right before use and the Ca^2+ fluorescence intensity was measured (Ca^2+ imaging measurement) (FIG. 13(a)). After this, a buffer solution (500 μl) containing 10 μM concentration glutamic acid was added. After 2.5 minutes, time lapse measurement of Ca^2+ imaging was started (FIG. 13(b)). After 9.5 minutes, an antagonist mixture: 10 μl containing 2.5 mM D-AP5 and 2.5 mM CNQX was added. Furthermore, after 10.5 minutes, time lapse measurement of Ca^2+ imaging was performed (FIG. 13(c)).

SMILES | large area pulse channel current ([1]; glutamic acid added to first reservoir, final concentration 20 μM, FIG. 12(b)) | concentration of Ca^2+ in the cells [2] | increase of large area pulse channel current in the state of glutamic acid toxicity [1]
N[C@@H](CCC(=O)O)C(=O)O [glutamic acid] | increases | rise in a fluctuating manner | 
N#Cc1cc2c(cc1[N+](=O)[O-])=NC(=O)C(=O)N=2 [CNQX, 6-cyano-7-nitroquinoxaline-2,3-dione] |  |  | substantially eliminated
N[C@H](CCCP(=O)(O)O)C(=O)O [D-AP5, D-(−)-2-amino-5-phosphonopentanoic acid] |  |  | substantially eliminated
